This assay concerns the target T1, human IDO1 (Homo sapiens, UniProt P14902).
T1 construct: expressed in transfected cells
The assay is described as follows: HEK293 cells stably expressing human IDO1, IDO inhibition assay (kynurenine, Ehrlich reagent). The format is cell-based. The note with it: 20 hours incubation, absorbance at 490 nm, read-out: HEK Human IDO-1 Bio Activity (IDO IC50). The method, then:
HEK293 cells were transfected with a pCDNA-based mammalian expression vector harboring human IDO1 cDNA (NM 002164.2) by electroporation. They were cultured in medium (DMEM with 10% FBS) containing 1 mg/ml G418 for two weeks. Clones of HEK293 cells that stably expressed human IDO1 protein were selected and expanded for IDO inhibition assay. The human IDO1/HEK293 cells were seeded at 10,000 cells per 50 μL per well with RPMI/phenol red free media contains 10% FBS in a 384-well black wall clear bottom tissue culture plate (Matrix Technologies LLC) 100 nL of certain concentration of compound was then added to each well using ECHO liquid handling systems. The cells were incubated for 20 hours in 37° C. incubator with 5% CO2. The compound treatments were stopped by adding trichloroacetic acid (Sigma-Aldrich) to a final concentration at 0.2%. The cell plate was further incubated at 50° C. for 30 minute. The equal volume supernatant (20 μL) and 0.2% (w/v) Ehrlich reagent (4-dimethylaminobenzaldehyde, Sigma-Aldrich) in glacial acetic acid were mixed in a new clear bottom 384-well plate. This plate was then incubated at room temperature for 30 minute. The absorbance at 490 nm was measured on Envision plate reader. Compound IC50 values were calculated using the counts of 500 nM of a reference standard treatment as one hundred percent inhibition, and counts of no compound but DMSO treatment as zero percent inhibition.
T1 sequence (P14902 whole entry): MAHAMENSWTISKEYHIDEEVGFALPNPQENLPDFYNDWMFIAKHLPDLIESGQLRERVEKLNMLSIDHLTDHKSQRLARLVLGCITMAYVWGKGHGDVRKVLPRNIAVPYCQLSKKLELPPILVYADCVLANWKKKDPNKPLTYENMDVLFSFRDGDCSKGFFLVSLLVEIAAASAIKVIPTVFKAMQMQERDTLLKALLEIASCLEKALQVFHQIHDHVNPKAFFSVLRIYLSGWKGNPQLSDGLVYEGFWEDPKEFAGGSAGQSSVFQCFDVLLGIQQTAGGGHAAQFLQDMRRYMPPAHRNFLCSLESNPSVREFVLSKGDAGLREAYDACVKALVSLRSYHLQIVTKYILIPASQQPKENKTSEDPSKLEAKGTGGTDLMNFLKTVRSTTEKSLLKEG
For the compound `C[C@@H](NC(=O)N(Cc1ccc(CC(=O)O)cc1)[C@H]1CC[C@H](c2ccnc3ccc(F)cc32)CC1)c1ccc(F)cc1` [Example 41, 2-(4-((3-((R)-1-(4-fluorophenyl)ethyl)-1-((1 r,4R)-4-(6-fluoroquinolin-4-yl)cyclohexyl)ureido)methyl)phenyl)acetic Acid], the IC50 was less than 100 nM. Regarding `C[C@@H](NC(=O)N(Cc1ccccc1)[C@H]1CC[C@H](c2ccnc3ccc(F)cc32)CC1)c1ccc(F)cc1` [Example 40, 1-benzyl-3-((R)-1-(4-fluorophenyl)ethyl)-1-((1r,4R)-4-(6-fluoroquinolin-4-yl)cyclohexyl)urea], the IC50 was less than 1000 nM. Then `CN(C(=O)Nc1ccc(OC(F)(F)F)cc1)C1CCN(c2ccnc3ccc(F)cc23)CC1` [Example 3, 1-(1-(6-Fluoroquinolin-4-yl)piperidin-4-yl)-1-methyl-3-(4-(trifluoromethoxy)phenyl)urea], with less than 1000 nM; and `COc1ccc(CN(C(=O)Nc2ccc(F)cc2)[C@H]2CC[C@H](c3ccccc3)CC2)cc1` [Example 9, 3-(4-fluorophenyl)-1-(4-methoxybenzyl)-1-(trans-4-phenylcyclohexyl)urea], with less than 1000 nM. In the case of `COc1ccc(CN(C(=O)N[C@@H](C)c2ccc(Cl)cc2)[C@H]2CC[C@H](c3ccccc3)CC2)cc1` [Example 31, 3-((S)-1-(4-chlorophenyl)ethyl)-1-(4-methoxybenzyl)-1-((1r,4S)-4-phenylcyclohexyl)urea] it was less than 1000 nM; in that of `O=C(O)Cc1ccc(CN(C(=O)Nc2ccccc2)[C@H]2CC[C@H](c3ccnc4ccc(F)cc43)CC2)cc1` [Example 27, 2-(4-((1-(trans-4-(6-fluoroquinolin-4-yl)cyclohexyl)-3-phenylureido)methyl)phenyl)acetic acid], less than 100 nM. In the case of `COc1ccc(CN(C(=O)N[C@H](C)c2ccc(F)cc2)C2CCC(c3ccccc3)CC2)cc1` (stereo partly drawn) [Example 33, 3-((R)-1-(4-fluorophenyl)ethyl)-1-(4-methoxybenzyl)-1-((1r,4R)-4-phenylcyclohexyl)urea] it was less than 100 nM; in that of `C[C@H](NC(=O)N(Cc1ccccc1)[C@H]1CC[C@H](c2ccnc3ccc(F)cc32)CC1)c1ccc(Cl)cc1` [Example 39, 1-benzyl-3-((S)-1-(4-chlorophenyl)ethyl)-1-((1r,4S)-4-(6-fluoroquinolin-4-yl)cyclohexyl)urea], less than 10000 nM.

Take `C[C@H](NC(=O)N[C@H]1CC[C@H](c2ccnc3ccc(F)cc32)CC1)c1ccc(Cl)cc1` [Example 34, 1-((S)-1-(4-chlorophenyl)ethyl)-3-((1r,4S)-4-(6-fluoroquinolin-4-yl)cyclohexyl)urea]: the IC50 is less than 1000 nM.

With `COc1ccc(CN(C(=O)Nc2ccc(F)cc2F)[C@H]2CC[C@H](c3ccccc3)CC2)cc1` [Example 5, 3-(2,4-difluorophenyl)-1-(4-methoxybenzyl)-1-(trans-4-phenylcyclohexyl)urea], the IC50 was less than 1000 nM. Turning to `O=C(Nc1ccc(Cl)cc1F)N(Cc1ccccc1)[C@H]1CC[C@H](c2ccnc3ccc(F)cc32)CC1` [Example 21, 1-benzyl-3-(4-chloro-2-fluorophenyl)-1-(trans-4-(6-fluoroquinolin-4-yl)cyclohexyl)urea], the IC50 is less than 1000 nM. Turning to `C[C@H](NC(=O)N(C)[C@H]1CC[C@H](c2ccnc3ccc(F)cc32)CC1)c1ccc(Cl)cc1` [Example 36, 3-((S)-1-(4-chlorophenyl)ethyl)-1-((1r,4S)-4-(6-fluoroquinolin-4-yl)cyclohexyl)-1-methylurea], the IC50 was less than 1000 nM.

With `CCN(C(=O)Nc1ccc(Cl)cc1)[C@H]1CC[C@@H](c2ccnc3ccc(F)cc32)CC1` [Example 17, 3-(4-chlorophenyl)-1-ethyl-1-(cis-4-(6-fluoroquinolin-4-yl)cyclohexyl)urea], the IC50 is less than 1000 nM. On to `COc1ccc(CN(C(=O)NC2CCCC2)C2CCC(c3ccccc3)CC2)cc1` (centres unmarked) [Example 44, 3-cyclopentyl-1-(4-methoxybenzyl)-1-((1r,4r)-4-phenylcyclo-hexyl)urea], for which the IC50 was less than 1000 nM.

As a reminder, the IC50 is the concentration that gives 50% inhibition.

The values above are taken from patent publication US10696648B2, “Inhibitors of indoleamine 2,3-dioxygenase and methods of their use” (BRISTOL-MYERS SQUIBB COMPANY, priority 2016, dated 2020).
